From the supplement of paper PMC10307832

Tests used:
Test in all cases: relative viability (nuclei count vs DMSO), 5 days (fraction); higher = more cells survive
[1] = compound: CN(C)CC1=CC(=CC=C1)N=C(C2=CC=CC=C2)C3=C(NC4=C3C=CC(=C4)C(=O)N(C)C)O + CC(C)C[C@H](NC(=O)[C@H](Cc1ccccc1)NC(=O)c1cnccn1)B(O)O [Bortezomib] (partner 0.002 µM)
Method in brief: (§1)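 Relative viability was taken as the ratio of nuclei in treated wells to nuclei in vehicle wells. Lung cancer cell lines in 1536-well plates received compounds by pin tool one day after seeding, either one drug alone or a fixed anchor-drug dose plus five library-drug doses (not always all listed) in √10 steps. Nuclei were counted on 4× images after 5 days of treatment, and values are medians of duplicate plates.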

[2] = compound: CN(C)CC1=CC(=CC=C1)N=C(C2=CC=CC=C2)C3=C(NC4=C3C=CC(=C4)C(=O)N(C)C)O + CC1(C)CCC(c2ccc(Cl)cc2)=C(CN2CCN(c3ccc(C(=O)NS(=O)(=O)c4ccc(N[C@H](CCN5CCOCC5)CSc5ccccc5)c(S(=O)(=O)C(F)(F)F)c4)cc3)CC2)C1 [Navitoclax] (partner 0.5 µM)
Method in brief: as §1

[3] = compound: CN(C)CC1=CC(=CC=C1)N=C(C2=CC=CC=C2)C3=C(NC4=C3C=CC(=C4)C(=O)N(C)C)O + CCNC(=O)c1noc(-c2cc(C(C)C)c(O)cc2O)c1-c1ccc(CN2CCOCC2)cc1 [Luminespib] (partner 0.01 µM)
Method in brief: as §1

[4] = compound: CN(C)CC1=CC(=CC=C1)N=C(C2=CC=CC=C2)C3=C(NC4=C3C=CC(=C4)C(=O)N(C)C)O + Cc1nc(Nc2ncc(C(=O)Nc3c(C)cccc3Cl)s2)cc(N2CCN(CCO)CC2)n1 [Dasatinib] (partner 0.075 µM)
Method in brief: as §1

Question: Which relative viability ([1]; first compound 0.08 µM) does the source give for EBC-1 here?
Answer: 0.551

Question: What about the relative viability ([1]; first compound 0.253 µM) of the same cell line?
Answer: 0.632

Question: And the relative viability ([1]; first compound 0.8 µM)?
Answer: 0.605

Question: What about the relative viability ([1]; first compound 2.53 µM) of the same cell line?
Answer: 0.737

Question: What about the relative viability ([1]; first compound 8 µM) of the same cell line?
Answer: 0.598

Question: What about the relative viability ([2]; first compound 0.08 µM) of the same cell line?
Answer: 0.459

Question: And the relative viability ([2]; first compound 0.253 µM)?
Answer: 0.411

Question: And the relative viability ([2]; first compound 0.8 µM)?
Answer: 0.539

Question: What about the relative viability ([2]; first compound 2.53 µM) of the same cell line?
Answer: 0.522

Question: What about the relative viability ([2]; first compound 8 µM) of the same cell line?
Answer: 0.518

Question: EKVX was tested. Which relative viability ([1]; first compound 0.08 µM) did it give?
Answer: 1

Question: What about the relative viability ([1]; first compound 0.253 µM) of the same cell line?
Answer: 1

Question: And the relative viability ([1]; first compound 0.8 µM)?
Answer: 1.01

Question: And the relative viability ([1]; first compound 2.53 µM)?
Answer: 0.962

Question: And the relative viability ([1]; first compound 8 µM)?
Answer: 1.06

Question: And the relative viability ([2]; first compound 0.08 µM)?
Answer: 0.908

Question: What about the relative viability ([2]; first compound 0.253 µM) of the same cell line?
Answer: 0.82

Question: And the relative viability ([2]; first compound 0.8 µM)?
Answer: 0.956

Question: What about the relative viability ([2]; first compound 2.53 µM) of the same cell line?
Answer: 0.885

Question: And the relative viability ([2]; first compound 8 µM)?
Answer: 1

Question: And the relative viability ([3]; first compound 0.08 µM)?
Answer: 0.864

Question: And the relative viability ([3]; first compound 0.253 µM)?
Answer: 0.921

Question: And the relative viability ([3]; first compound 0.8 µM)?
Answer: 1

Question: And the relative viability ([3]; first compound 2.53 µM)?
Answer: 0.927

Question: And the relative viability ([3]; first compound 8 µM)?
Answer: 1.06

Question: What about the relative viability ([4]; first compound 0.08 µM) of the same cell line?
Answer: 0.523

Question: And the relative viability ([4]; first compound 0.253 µM)?
Answer: 0.465

Question: And the relative viability ([4]; first compound 0.8 µM)?
Answer: 0.56

Question: And the relative viability ([4]; first compound 2.53 µM)?
Answer: 0.535

Question: And the relative viability ([4]; first compound 8 µM)?
Answer: 0.573

Question: Which results are given for EMC-BAC-2?
Answer: relative viability ([1]; first compound 0.08 µM): 1.09; relative viability ([1]; first compound 0.253 µM): 1.08; relative viability ([1]; first compound 0.8 µM): 1.09; relative viability ([1]; first compound 2.53 µM): 1.05; relative viability ([1]; first compound 8 µM): 1.01; relative viability ([2]; first compound 0.08 µM): 1.13; relative viability ([2]; first compound 0.253 µM): 1.15; relative viability ([2]; first compound 0.8 µM): 1.17; relative viability ([2]; first compound 2.53 µM): 1.18; relative viability ([2]; first compound 8 µM): 1.1; relative viability ([3]; first compound 0.08 µM): 1.2; relative viability ([3]; first compound 0.253 µM): 1.28; relative viability ([3]; first compound 0.8 µM): 1.15; relative viability ([3]; first compound 2.53 µM): 1.16; relative viability ([3]; first compound 8 µM): 1.11; relative viability ([4]; first compound 0.08 µM): 0.358; relative viability ([4]; first compound 0.253 µM): 0.388; relative viability ([4]; first compound 0.8 µM): 0.308; relative viability ([4]; first compound 2.53 µM): 0.348; relative viability ([4]; first compound 8 µM): 0.318

Question: What does the source list for EPLC-272H?
Answer: relative viability ([1]; first compound 0.08 µM): 0.949; relative viability ([1]; first compound 0.253 µM): 1.16; relative viability ([1]; first compound 0.8 µM): 0.903; relative viability ([1]; first compound 2.53 µM): 1.02; relative viability ([1]; first compound 8 µM): 1.15; relative viability ([2]; first compound 0.08 µM): 1.35; relative viability ([2]; first compound 0.253 µM): 1.08; relative viability ([2]; first compound 0.8 µM): 0.913; relative viability ([2]; first compound 2.53 µM): 1.14; relative viability ([2]; first compound 8 µM): 1.11; relative viability ([3]; first compound 0.08 µM): 0.309; relative viability ([3]; first compound 0.253 µM): 0.363; relative viability ([3]; first compound 0.8 µM): 0.239; relative viability ([3]; first compound 2.53 µM): 0.308; relative viability ([3]; first compound 8 µM): 0.211; relative viability ([4]; first compound 0.08 µM): 0.419; relative viability ([4]; first compound 0.253 µM): 0.334; relative viability ([4]; first compound 0.8 µM): 0.304; relative viability ([4]; first compound 2.53 µM): 0.382; relative viability ([4]; first compound 8 µM): 0.357

Question: H3255 was tested. Which relative viability ([1]; first compound 0.08 µM) did it give?
Answer: 0.779

Question: What about the relative viability ([1]; first compound 0.253 µM) of the same cell line?
Answer: 0.893

Question: And the relative viability ([1]; first compound 0.8 µM)?
Answer: 0.752

Question: And the relative viability ([1]; first compound 2.53 µM)?
Answer: 0.822

Question: What about the relative viability ([1]; first compound 8 µM) of the same cell line?
Answer: 0.94

Question: What about the relative viability ([2]; first compound 0.08 µM) of the same cell line?
Answer: 0.608

Question: What about the relative viability ([2]; first compound 0.253 µM) of the same cell line?
Answer: 0.457

Question: And the relative viability ([2]; first compound 0.8 µM)?
Answer: 0.514

Question: What about the relative viability ([2]; first compound 2.53 µM) of the same cell line?
Answer: 0.545

Question: What about the relative viability ([2]; first compound 8 µM) of the same cell line?
Answer: 0.552

Question: What about the relative viability ([3]; first compound 0.08 µM) of the same cell line?
Answer: 0.899

Question: And the relative viability ([3]; first compound 0.253 µM)?
Answer: 0.894

Question: What about the relative viability ([3]; first compound 0.8 µM) of the same cell line?
Answer: 0.751

Question: What about the relative viability ([3]; first compound 2.53 µM) of the same cell line?
Answer: 0.836

Question: What about the relative viability ([3]; first compound 8 µM) of the same cell line?
Answer: 0.998

Question: What about the relative viability ([4]; first compound 0.08 µM) of the same cell line?
Answer: 0.342

Question: And the relative viability ([4]; first compound 0.253 µM)?
Answer: 0.337

Question: What about the relative viability ([4]; first compound 0.8 µM) of the same cell line?
Answer: 0.316

Question: What about the relative viability ([4]; first compound 2.53 µM) of the same cell line?
Answer: 0.381

Question: And the relative viability ([4]; first compound 8 µM)?
Answer: 0.339

Question: HARA was tested. Which relative viability ([1]; first compound 0.08 µM) did it give?
Answer: 1.06

Question: What about the relative viability ([1]; first compound 0.253 µM) of the same cell line?
Answer: 1.1

Question: What about the relative viability ([1]; first compound 0.8 µM) of the same cell line?
Answer: 1.06

Question: And the relative viability ([1]; first compound 2.53 µM)?
Answer: 1.02

Question: And the relative viability ([1]; first compound 8 µM)?
Answer: 1.05

Question: And the relative viability ([2]; first compound 0.08 µM)?
Answer: 1.14

Question: And the relative viability ([2]; first compound 0.253 µM)?
Answer: 1.14

Question: What about the relative viability ([2]; first compound 0.8 µM) of the same cell line?
Answer: 1.18

Question: What about the relative viability ([2]; first compound 2.53 µM) of the same cell line?
Answer: 1.15

Question: What about the relative viability ([2]; first compound 8 µM) of the same cell line?
Answer: 1.13

Question: And the relative viability ([3]; first compound 0.08 µM)?
Answer: 0.867

Question: And the relative viability ([3]; first compound 0.253 µM)?
Answer: 0.742

Question: What about the relative viability ([3]; first compound 0.8 µM) of the same cell line?
Answer: 0.763

Question: And the relative viability ([3]; first compound 2.53 µM)?
Answer: 0.747

Question: What about the relative viability ([3]; first compound 8 µM) of the same cell line?
Answer: 0.656

Question: What about the relative viability ([4]; first compound 0.08 µM) of the same cell line?
Answer: 0.227

Question: What about the relative viability ([4]; first compound 0.253 µM) of the same cell line?
Answer: 0.306

Question: And the relative viability ([4]; first compound 0.8 µM)?
Answer: 0.231

Question: What about the relative viability ([4]; first compound 2.53 µM) of the same cell line?
Answer: 0.258

Question: And the relative viability ([4]; first compound 8 µM)?
Answer: 0.241

Question: Which results are given for HCC-15?
Answer: relative viability ([1]; first compound 0.08 µM): 0.984; relative viability ([1]; first compound 0.253 µM): 0.956; relative viability ([1]; first compound 0.8 µM): 1.08; relative viability ([1]; first compound 2.53 µM): 1.03; relative viability ([1]; first compound 8 µM): 1.12; relative viability ([2]; first compound 0.08 µM): 0.708; relative viability ([2]; first compound 0.253 µM): 0.705; relative viability ([2]; first compound 0.8 µM): 0.726; relative viability ([2]; first compound 2.53 µM): 0.731; relative viability ([2]; first compound 8 µM): 0.667; relative viability ([3]; first compound 0.08 µM): 0.304; relative viability ([3]; first compound 0.253 µM): 0.205; relative viability ([3]; first compound 0.8 µM): 0.181; relative viability ([3]; first compound 2.53 µM): 0.278; relative viability ([3]; first compound 8 µM): 0.279; relative viability ([4]; first compound 0.08 µM): 0.613; relative viability ([4]; first compound 0.253 µM): 0.602; relative viability ([4]; first compound 0.8 µM): 0.652; relative viability ([4]; first compound 2.53 µM): 0.643; relative viability ([4]; first compound 8 µM): 0.662

Question: For HCC-44, which relative viability ([1]; first compound 0.08 µM) is on record?
Answer: 0.913

Question: And the relative viability ([1]; first compound 0.253 µM)?
Answer: 0.872

Question: What about the relative viability ([1]; first compound 0.8 µM) of the same cell line?
Answer: 0.875

Question: What about the relative viability ([1]; first compound 2.53 µM) of the same cell line?
Answer: 0.803

Question: And the relative viability ([1]; first compound 8 µM)?
Answer: 0.948

Question: What about the relative viability ([2]; first compound 0.08 µM) of the same cell line?
Answer: 0.948

Question: And the relative viability ([2]; first compound 0.253 µM)?
Answer: 0.95

Question: And the relative viability ([2]; first compound 0.8 µM)?
Answer: 0.942

Question: What about the relative viability ([2]; first compound 2.53 µM) of the same cell line?
Answer: 0.995

Question: And the relative viability ([2]; first compound 8 µM)?
Answer: 0.994

Question: What about the relative viability ([3]; first compound 0.08 µM) of the same cell line?
Answer: 1.15

Question: What about the relative viability ([3]; first compound 0.253 µM) of the same cell line?
Answer: 0.761

Question: And the relative viability ([3]; first compound 0.8 µM)?
Answer: 1.03

Question: What about the relative viability ([3]; first compound 2.53 µM) of the same cell line?
Answer: 0.917

Question: What about the relative viability ([3]; first compound 8 µM) of the same cell line?
Answer: 0.991
